Test results reported in ChEMBL document CHEMBL1201862, “PubChem BioAssay data set” (2004).
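These data come from cells grown in 96-well plates and exposed to compound for 48 hours at five concentrations. At the GI50, growth is halved.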 Active and inactive are the calls of the source. Rule as the data show it: active = GI50 up to about 1.1 µM and inactive = higher.

What was measured:
Test in all cases: growth of human tumour cells (NCI), 48 h
MCF7 = test system: MCF7
OVCAR-4 = test system: OVCAR-4
HCT-116 = test system: HCT-116
SK-MEL-28 = test system: SK-MEL-28
CCRF-CEM = test system: CCRF-CEM
M14 = test system: M14
Hs-578T = test system: Hs-578T
TK-10 = test system: TK-10
BT-549 = test system: BT-549
NCI-H460 = test system: NCI-H460
HT-29 = test system: HT-29
COLO 205 = test system: COLO 205
SF-268 = test system: SF-268
UACC-62 = test system: UACC-62
HCC 2998 = test system: HCC 2998
NCI-H23 = test system: NCI-H23
HOP-62 = test system: HOP-62
KM12 = test system: KM12
K562 = test system: K562

Structure (SMILES) | GI50 (MCF7) | GI50 (OVCAR-4) | GI50 (HCT-116) | GI50 (SK-MEL-28) | GI50 (CCRF-CEM) | GI50 (M14) | GI50 (Hs-578T) | GI50 (TK-10) | GI50 (BT-549) | GI50 (NCI-H460) | GI50 (HT-29) | GI50 (COLO 205) | GI50 (SF-268) | GI50 (UACC-62) | GI50 (HCC 2998) | GI50 (NCI-H23) | GI50 (HOP-62) | GI50 (KM12) | GI50 (K562)
O=S1(=O)c2ccccc2NC(=S)N1c1ccccc1 | 63.2 µM (inactive) | 53.3 µM (inactive) | 45.3 µM (inactive) | > 89.9 µM (inactive) | 54.1 µM (inactive) | 29.5 µM (inactive) | 69.2 µM (inactive) | > 72.4 µM (inactive) | 47.6 µM (inactive) | > 79.1 µM (inactive) | > 13.4 µM (inactive) | 77.8 µM (inactive) | 71.1 µM (inactive) | 65.9 µM (inactive) | 53.5 µM (inactive) | 46.3 µM (inactive) | 7.1 µM (inactive) | > 77.1 µM (inactive) | 49.1 µM (inactive)
C=C1CCCC(C)(C)C1CCC1(C)CCC(C(C)C(=O)OC)OO1 (stereo not given) | > 21.5 µM (inactive) | 4.9 µM (inactive) | 8.45 µM (inactive) | 20.6 µM (inactive) | 2.43 µM (inactive) | 9.66 µM (inactive) | 5.57 µM (inactive) | 4.28 µM (inactive) | 4.9 µM (inactive) | 0.908 µM (active) | 2.04 µM (inactive) | 4.92 µM (inactive) | 3.57 µM (inactive) | 5.62 µM (inactive) | 4.37 µM (inactive) | 3.78 µM (inactive) | 0.706 µM (active) | 0.948 µM (active) | 8.89 µM (inactive)
Cc1cc(C2(c3cc(C)c(O)c4ncccc34)OC(=O)c3ccccc32)c2cccnc2c1O | < 0.001 µM (active) | 0.067 µM (active) | 0.00268 µM (active) | > 10 µM (inactive) | 0.01 µM (active) | 0.0625 µM (active) | 0.0127 µM (active) | > 10 µM (inactive) | 0.031 µM (active) | < 0.001 µM (active) | 0.0406 µM (active) | 0.67 µM (active) | 0.0121 µM (active) | 0.0158 µM (active) | 0.0468 µM (active) | 0.0187 µM (active) | 0.0217 µM (active) | 0.0668 µM (active) | 0.0776 µM (active)
CCCCC1(NN=C2CCCCC2)C(=O)N(c2ccccc2)N(c2ccccc2)C1=O | > 100 µM (inactive) | > 100 µM (inactive) | > 100 µM (inactive) | > 100 µM (inactive) | 21.6 µM (inactive) | > 100 µM (inactive) | > 100 µM (inactive) | > 100 µM (inactive) | > 100 µM (inactive) | > 100 µM (inactive) | > 100 µM (inactive) | > 100 µM (inactive) | > 100 µM (inactive) | > 100 µM (inactive) | > 100 µM (inactive) | > 100 µM (inactive) | > 100 µM (inactive) | > 100 µM (inactive) | 30 µM (inactive)
CC(C)(C)N(Cc1ccccc1)C(=O)/C=C\[S+]([O-])c1ccccc1 (stereo not given) | 2.92 µM (inactive) | 2.32 µM (inactive) | 2.43 µM (inactive) | 7.73 µM (inactive) | 1.35 µM (inactive) | 2.51 µM (inactive) | 2.07 µM (inactive) | 6.75 µM (inactive) | 2.94 µM (inactive) | 4.1 µM (inactive) | 4.11 µM (inactive) | 4.72 µM (inactive) | 2.07 µM (inactive) | 4.39 µM (inactive) | 6.28 µM (inactive) | 2.86 µM (inactive) | 8.24 µM (inactive) | 5.69 µM (inactive) | 2.22 µM (inactive)
CC(=O)O[C@@H]1C[C@@]2(C)[C@@H]3CC=C4[C@@H](C[C@H](O)C(=O)C4(C)C)[C@]3(C)C(=O)C[C@]2(C)[C@H]1[C@@](C)(O)C(=O)/C=C/C(C)(C)OC(C)=O | 3.57 µM (inactive) | 0.789 µM (active) | 1.63 µM (inactive) | 0.365 µM (active) | 1.61 µM (inactive) | 0.592 µM (active) | 4.71 µM (inactive) | 0.0787 µM (active) | 0.336 µM (active) | 0.428 µM (active) | 1.08 µM (active) | 1.5 µM (inactive) | 1.01 µM (active) | 2.63 µM (inactive) | 0.035 µM (active) | 5.26 µM (inactive) | 0.731 µM (active) | 4.84 µM (inactive) | 1.51 µM (inactive)
Cc1cccc(NC(=O)/C=C/c2ccc([N+](=O)[O-])cc2)c1 | > 22.3 µM (inactive) | > 41.4 µM (inactive) | > 36.9 µM (inactive) | > 42 µM (inactive) | 16 µM (inactive) | > 43.4 µM (inactive) | 48.1 µM (inactive) | > 41.5 µM (inactive) | > 34.5 µM (inactive) | > 43.5 µM (inactive) | 35 µM (inactive) | > 41.1 µM (inactive) | 38.3 µM (inactive) | > 41.9 µM (inactive) | 16.6 µM (inactive) | 16.4 µM (inactive) | 16.7 µM (inactive) | > 33.3 µM (inactive) | > 29.4 µM (inactive)
O=C1Nc2ccc(Br)cc2/C1=C/C(=O)c1ccccc1 | 4.18 µM (inactive) | 13.7 µM (inactive) | 4.22 µM (inactive) | 14.8 µM (inactive) | 1.9 µM (inactive) | 11.1 µM (inactive) | 17.7 µM (inactive) | 1.82 µM (inactive) | 8.59 µM (inactive) | 18.2 µM (inactive) | 1.59 µM (inactive) | 2.11 µM (inactive) | 19.5 µM (inactive) | 16 µM (inactive) | 15.1 µM (inactive) | 10.2 µM (inactive) | 22.7 µM (inactive) | 7.83 µM (inactive) | 5.57 µM (inactive)
C#CCn1ncc2c(SCc3ccccc3)ncnc21 | 11.4 µM (inactive) | > 100 µM (inactive) | 62.8 µM (inactive) | > 100 µM (inactive) | 79.8 µM (inactive) | 50.7 µM (inactive) | > 100 µM (inactive) | > 100 µM (inactive) | > 100 µM (inactive) | > 100 µM (inactive) | > 100 µM (inactive) | > 100 µM (inactive) | > 100 µM (inactive) | > 100 µM (inactive) | > 100 µM (inactive) | > 100 µM (inactive) | > 100 µM (inactive) | > 100 µM (inactive) | 52.7 µM (inactive)
CN(C)CCNC(=O)c1cccc2nc3c(nc12)-c1ccccc1C3=O | 6.34 µM (inactive) | 20.8 µM (inactive) | 12.7 µM (inactive) | 16 µM (inactive) | 2.56 µM (inactive) | 15.8 µM (inactive) | 18.5 µM (inactive) | 18.6 µM (inactive) | 14.3 µM (inactive) | 4.99 µM (inactive) | 6.76 µM (inactive) | 17.6 µM (inactive) | 11.8 µM (inactive) | 19.1 µM (inactive) | 15 µM (inactive) | 13.3 µM (inactive) | 6.17 µM (inactive) | 10 µM (inactive) | 3.16 µM (inactive)
